The values below come from patent US11446287B2, “Compounds and methods for EP300 or CBP modulation and indications therefor” (Opna Immuno-Oncology SA, priority 2019, dated 2022).

Molecules are shown by their SMILES.

The test addresses T1, Recombinant human EP300 containing the bromodomain (EP300-BD (1040-1161)) (Homo sapiens, UniProt Q09472).
T1 construct: Recombinant human EP300 bromodomain (EP300-BD (1040-1161)); made in house; host or cells: E. coli BL21-CodonPlus (DE3), modified pET vector
T1 sequence (Q09472 1040-1161): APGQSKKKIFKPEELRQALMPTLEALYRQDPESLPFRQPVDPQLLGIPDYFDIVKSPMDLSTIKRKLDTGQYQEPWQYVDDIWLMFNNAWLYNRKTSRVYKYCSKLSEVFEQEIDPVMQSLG
Description: EP300 Alphascreen binding assay. A digest of the protocol: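 Displacement of a biotinylated acetyl-K56 histone H3 peptide from the N-His bromodomain construct (1040-1161) measured by AlphaScreen proximity, beads at 7.5 μg/ml final, read 60 min after addition. Protein, peptide and compound first incubated 1 h at room temperature, pH 7.5 HEPES buffer; IC50 by four-parameter logistic fit.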
(In general: Alpha assays give light when donor and acceptor beads are brought close together.)
Take `Cc1noc(C)c1-c1cnc2c(c1)c(-c1ccc(C(=O)O)cc1OC(F)(F)F)cn2-c1cnc(N)nc1` [P-0320, 4-(1-(2-aminopyrimidin-5-yl)-5-(3,5-dimethylisoxazol-4-yl)-1H-pyrrolo[2,3-b]pyridin-3-yl)-3-(trifluoromethoxy)benzoic acid]: the IC50 (commonly the concentration that gives 50% inhibition) is 0.1 to 1000 nM. In the case of `Cc1noc(C)c1-c1cnc2c(c1)c(-c1ccc(C(=O)O)cc1OC(F)(F)F)cn2-c1cnc(N(C)C)nc1` [P-0321], the 50% inhibitory concentration (IC50) was 0.1 to 1000 nM. `Cc1noc(C)c1-c1cnc2c(c1)c(-c1ccc(C(=O)O)cc1OC(F)(F)F)cn2-c1ccc(C(=O)O)cc1` [P-0322, 4-(1-(4-carboxyphenyl)-5-(3,5-dimethylisoxazol-4-yl)-1H-pyrrolo[2,3-b]pyridin-3-yl)-3-(trifluoromethoxy)benzoic acid]: the IC50 fell in the range of 0.1 to 1000 nM. On to `Cc1noc(C)c1-c1cnc2c(c1)c(-c1ccc(C(=O)O)cc1OC(F)(F)F)cn2-c1ccc(C(N)=O)cc1` [P-0323, 4-(1-(4-carbamoylphenyl)-5-(3,5-dimethylisoxazol-4-yl)-1H-pyrrolo[2,3-b]pyridin-3-yl)-3-(trifluoromethoxy)benzoic acid], for which the IC50 is 0.1 to 1000 nM.

For `COc1cc(C(=O)O)ncc1-c1cn(-c2ccncc2Cl)c2ncc(-c3c(C)noc3C)cc12` [P-0324, 5-(1-(3-chloropyridin-4-yl)-5-(3,5-dimethylisoxazol-4-yl)-1H-pyrrolo[2,3-b]pyridin-3-yl)-4-methoxypicolinic acid], the IC50 was 0.1 to 1000 nM.

With `Cc1noc(C)c1-c1cnc2c(c1)c(-c1ccc(C(=O)O)cc1OCC(F)F)cn2[C@H]1CCOC1` [P-0325, (S)-3-(2,2-difluoroethoxy)-4-(5-(3,5-dimethylisoxazol-4-yl)-1-(tetrahydrofuran-3-yl)-1H-pyrrolo[2,3-b]pyridin-3-yl)benzoic acid], the IC50 fell in the range of 0.1 to 1000 nM. With `CCn1cc(-n2cc(-c3ccc(C(=O)O)cc3OCC(F)F)c3cc(-c4c(C)noc4C)cnc32)c(C)n1` [P-0326, 3-(2,2-difluoroethoxy)-4-(5-(3,5-dimethylisoxazol-4-yl)-1-(1-ethyl-3-methyl-1H-pyrazol-4-yl)-1H-pyrrolo[2,3-b]pyridin-3-yl)benzoic acid], the IC50 lay in the range of 0.1 to 1000 nM. With `Cc1noc(C)c1-c1cnc2c(c1)c(-c1c(F)cc(C(=O)O)cc1OCC(F)F)cn2-c1ccccc1` [P-0327, 3-(2,2-difluoroethoxy)-4-(5-(3,5-dimethylisoxazol-4-yl)-1-phenyl-1H-pyrrolo[2,3-b]pyridin-3-yl)-5-fluorobenzoic acid], the IC50 is 0.1 to 1000 nM. On to `Cc1noc(C)c1-c1cnc2c(c1)c(-c1ccc(C(=O)O)cc1OCC(F)F)cn2-c1cnc(N2CCC2)nc1` [P-0328, 4-(1-(2-(azetidin-1-yl)pyrimidin-5-yl)-5-(3,5-dimethylisoxazol-4-yl)-1H-pyrrolo[2,3-b]pyridin-3-yl)-3-(2,2-difluoroethoxy)benzoic acid], for which the IC50 fell in the range of 0.1 to 1000 nM. Regarding `CCOc1cc(C(=O)O)nc(OCC)c1-c1cn(-c2ccc(F)cc2F)c2ncc(-c3c(C)noc3C)cc12` [P-0329, 5-(1-(2,4-difluorophenyl)-5-(3,5-dimethylisoxazol-4-yl)-1H-pyrrolo[2,3-b]pyridin-3-yl)-4,6-diethoxypicolinic acid], the half-maximal inhibitory concentration (IC50) fell in the range of 0.1 to 1000 nM. The result for `CCOc1cc(C(=O)O)c(F)cc1-c1cn(-c2ccc(F)cc2F)c2ncc(-c3c(C)noc3C)cc12` [P-0330, 4-(1-(2,4-difluorophenyl)-5-(3,5-dimethylisoxazol-4-yl)-1H-pyrrolo[2,3-b]pyridin-3-yl)-5-ethoxy-2-fluorobenzoic acid] reads 0.1 to 1000 nM; that for `Cc1noc(C)c1-c1cnc2c(c1)c(-c1c(Cl)cc(C(=O)O)cc1OCC(F)F)cn2-c1cnc(N2CCC2)nc1` [P-0331, 4-(1-(2-(azetidin-1-yl)pyrimidin-5-yl)-5-(3,5-dimethylisoxazol-4-yl)-1H-pyrrolo[2,3-b]pyridin-3-yl)-3-chloro-5-(2,2-difluoroethoxy)benzoic acid], 0.1 to 1000 nM. For `Cc1noc(C)c1-c1cnc2c(c1)c(-c1c(Cl)cc(C(=O)O)cc1OCC(F)F)cn2-c1ccccc1` [P-0332, 3-chloro-5-(2,2-difluoroethoxy)-4-(5-(3,5-dimethylisoxazol-4-yl)-1-phenyl-1H-pyrrolo[2,3-b]pyridin-3-yl)benzoic acid], the IC50 lay within 0.1 to 1000 nM.

In the case of `Cc1noc(C)c1-c1cnc2c(c1)c(-c1c(Cl)cc(C(=O)O)cc1OCC(F)F)cn2[C@H]1CCOC1` [P-0333, (S)-3-chloro-5-(2,2-difluoroethoxy)-4-(5-(3,5-dimethylisoxazol-4-yl)-1-(tetrahydrofuran-3-yl)-1H-pyrrolo[2,3-b]pyridin-3-yl)benzoic acid], the IC50 lay within 0.1 to 1000 nM. Consider `Cc1noc(C)c1-c1cnc2c(c1)c(-c1ccc(C(=O)O)cc1OC1CCC1)cn2-c1ncccc1C#N` [P-0334, 4-(1-(3-cyanopyridin-2-yl)-5-(3,5-dimethylisoxazol-4-yl)-1H-pyrrolo[2,3-b]pyridin-3-yl)-3-cyclobutoxybenzoic acid], for which the 50% inhibitory concentration (IC50) lay in the range of 0.1 to 1000 nM. The result for `Cc1noc(C)c1-c1cnc2c(c1)c(-c1ccc(C(=O)O)cc1OC(F)(F)F)cn2C1(CC#N)CCC1` [P-0335, 4-(1-(1-(cyanomethyl)cyclobutyl)-5-(3,5-dimethylisoxazol-4-yl)-1H-pyrrolo[2,3-b]pyridin-3-yl)-3-(trifluoromethoxy)benzoic acid] reads 0.1 to 1000 nM; that for `Cc1noc(C)c1-c1cnc2c(c1)c(-c1ccc(C(=O)O)cc1OC(C)C)cn2-c1ncccc1C#N` [P-0336, 4-(1-(3-cyanopyridin-2-yl)-5-(3,5-dimethylisoxazol-4-yl)-1H-pyrrolo[2,3-b]pyridin-3-yl)-3-isopropoxybenzoic acid], 0.1 to 1000 nM; that for `Cc1noc(C)c1-c1cnc2c(c1)c(-c1ccc(C(=O)O)cc1OC1CC1)cn2-c1ncccc1C#N` [P-0337, 4-(1-(3-cyanopyridin-2-yl)-5-(3,5-dimethylisoxazol-4-yl)-1H-pyrrolo[2,3-b]pyridin-3-yl)-3-cyclopropoxybenzoic acid], 0.1 to 1000 nM.

For `Cc1noc(C)c1-c1cnc2c(c1)c(-c1ccc(C(=O)O)cc1OCC(F)F)cn2C(C1CC1)C1CC1` [P-0338, 4-(1-(dicyclopropylmethyl)-5-(3,5-dimethylisoxazol-4-yl)-1H-pyrrolo[2,3-b]pyridin-3-yl)-3-(2,2-difluoroethoxy)benzoic acid], the 50% inhibitory concentration (IC50) was in the range of 0.1 to 1000 nM.

As to `COc1cc(C(=O)O)ncc1-c1cn(C(C2CC2)C2CC2)c2ncc(-c3c(C)noc3C)cc12` [P-0339, 5-(1-(dicyclopropylmethyl)-5-(3,5-dimethylisoxazol-4-yl)-1H-pyrrolo[2,3-b]pyridin-3-yl)-4-methoxypicolinic acid], the IC50 was in the range of 0.1 to 1000 nM. Under `Cc1noc(C)c1-c1cnc2c(c1)c(-c1c(Cl)cc(C(=O)O)cc1OCC(F)F)cn2C(C1CC1)C1CC1` [P-0340, 3-chloro-4-(1-(dicyclopropylmethyl)-5-(3,5-dimethylisoxazol-4-yl)-1H-pyrrolo[2,3-b]pyridin-3-yl)-5-(2,2-difluoroethoxy)benzoic acid] stands 0.1 to 1000 nM. Under `Cc1noc(C)c1-c1cnc2c(c1)c(-c1ccc(C(=O)O)cc1OC1CCC1)cn2C1CCOCC1` [P-0341, 3-cyclobutoxy-4-(5-(3,5-dimethylisoxazol-4-yl)-1-(tetrahydro-2H-pyran-4-yl)-1H-pyrrolo[2,3-b]pyridin-3-yl)benzoic acid] stands 0.1 to 1000 nM.
